Data from patent publication US11452731B2, “Method of treating and preventing loss of cognition” (ENDORECHERCHE, INC., priority 2009, dated 2022).
“Also recorded” adds a separate entry of the source. Like-named read-outs stand apart in the source and are kept apart here. Marks after values point to notes of the source that are not given here.

What was measured:
[1] = cited from earlier work
[2] = 10% DHEA cream once daily for 12 months in 60 to 70 year old women; format: in vivo
Excerpt: The use of estrogen replacement therapy requires the addition of progestins to counteract the endometrial proliferation induced by estrogens while both estrogens and progestins could increase the risk of breast cancer (Bardon et al., 1985; Colditz et al., 1995). In order to avoid the limitations of standard estrogen (ERT) or hormonal replacement therapy (HRT), we have studied the effect of DHEA administration to 60 to 70 year old women for 12 months on bone mineral density, parameters of bone formation and turnover, serum lipids, glucose and insulin, adipose tissue mass, muscular mass, energy, well-being as well as on vaginal and endometrial histology (Diamond et al., 1996; Labrie et al., 1997c). DHEA was administered percutaneously to avoid first passage of the steroid precursor through the liver.
We have thus evaluated the effect of chronic replacement therapy with a 10% DHEA cream applied once daily for 12 months in 60 to 70 year old women (N=15). […] These changes in bone mineral density were accompanied by significant decreases at 12 months of 38% and 22% in urinary hydroxyproline and in plasma bone alkaline phosphatase, respectively (all p<0.05).

[3] = Clinical trial ERC-213: DHEA vaginal suppositories for 7 days, maturation index and vaginal pH in postmenopausal women (Example 11); format: in vivo
Experimental: Data are expressed as means±SEM (n=9 or 10). *, p<0.05, **, p<0.01, Data on Day 7 versus Data on Day 1.
The primary objective of that study was measurement of the maturation value of the vaginal epithelial cells following daily intravaginal application of DHEA. Forty postmenopausal women were randomized to receive a daily dose of one ovule of the following DHEA concentrations: 0.0%, 0.5% (6.5 mg of DHEA/ovule), 1.0% (13 mg of DHEA/ovule) or 1.8% (23.4 mg of DHEA/ovule) for 7 days. The systemic bioavailability of DHEA and its metabolites were also measured.

[4] = tested on: ZR-75-1 human breast cancer xenografts; test: Tamoxifen and EM-652.HCl alone or combined on growth of ZR-75-1 xenografts in nude mice (FIG. 7); format: in vivo; details: hydrochloride
[5] = Endometrial epithelium thickness in OVX nude mice after 161 days of antiestrogen (Example 8); format: in vivo
Procedure, shortened: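 OVX nude mice received antiestrogen with or without an estrone implant; controls were OVX and OVX+Estrone. Antiestrogens were given as suspensions for 161 days. Uteri were then collected and H&E sections analysed by image analysis for mean endometrial epithelial cell height.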

[6] = tested on: ZR-75-1 human breast cancer xenografts; test: Growth and response of human ZR-75-1 breast tumors in OVX nude mice, 7 antiestrogens for 161 days with or without estrone (Example 8); format: in vivo
Procedure, shortened: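 ZR-75-1 xenografts were grown in ovariectomized nude mice, with estrone implants removed in the OVX control and antiestrogen-alone groups. Antiestrogens were given as suspensions for 161 days. Tumor area came from two perpendicular diameters, and response was assessed at study end using mice surviving at least 84 days.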

[7] = estrone-supplemented, 50 μg daily, 161 days

## C[C@]12CC[C@H](O)CC1=CC[C@@H]1[C@@H]2CC[C@]2(C)C(=O)CC[C@@H]12 [DHEA, dehydroepiandrosterone]
[1]; both women and men
  decrease of abdominal subcutaneous fat: 6%
[1]; in vivo
  decrease of responsiveness of serum insulin to the glucose tolerance test: 13%
  improvement in the insulin sensitivity index: 34%
[1]; men
  decrease of abdominal visceral fat: 7.4%
[1]; women
  decrease of abdominal visceral fat: 10.2%
[2]
  decrease in fasting plasma insulin levels: 17%
  decrease in plasma bone alkaline phosphatase: 22%
  decrease in subcutaneous skin fold thickness: 9.8%
  decrease in urinary hydroxyproline: 38%
  decrease of fasting plasma glucose: 12%
  decrease of femoral fat (mid-thigh, computed tomography): 3.8%
  effect on the endometrium: remained completely atrophic
  increase in femoral muscular area: 3.5%
  increase of bone mass density at the hip: 2.3%
  increase of bone mass density at the hip Ward's triangle: 3.75%
  increase of bone mass density at the lumbar spine level: 2.2%
  increase of the index of sebum secretion: 79%
  increase over control in plasma osteocalcin: 135%
  women with stimulated vaginal epithelium maturation among those with a maturation value of zero at onset: 8 out of 10
[3]; 0.5% DHEA vaginal suppository daily
  increase of maturation index, Day 7 versus Day 1: 107%
[3]; 0.5% DHEA, Day 1 (before)
  Vaginal pH: 6.29±0.21
[3]; 0.5% DHEA, Day 7
  Vaginal pH: 5.75±0.27
[3]; 1.0% DHEA vaginal suppository daily
  increase of maturation index, Day 7 versus Day 1: 75%
[3]; 1.0% DHEA, Day 1 (before)
  Vaginal pH: 6.47±0.23
[3]; 1.0% DHEA, Day 7
  Vaginal pH: 5.76±0.22
[3]; 1.8% DHEA vaginal suppository daily
  increase of maturation index, Day 7 versus Day 1: 150%
[3]; 1.8% DHEA, Day 1 (before)
  Vaginal pH: 6.53±0.25
[3]; 1.8% DHEA, Day 7
  Vaginal pH: 5.86±0.28

## CC1=C(c2ccc(O)cc2)[C@H](c2ccc(OCCN3CCCCC3)cc2)Oc2cc(O)ccc21.Cl [EM-652.HCl, (S)-(+)-7-hydroxy-3-(4′-hydroxyphenyl)-4-methyl-2-(4″-(2′″-piperidinoethoxy)phenyl)-2H-1-benzopyran hydrochloride]
[4]
  effect on growth of ZR-75-1 xenografts: did not exert any stimulatory effect; also recorded: no effect on tumor growth
[5]; 50 μg daily oral, estrone stimulation
  inhibition of the stimulatory effect of estrone on epithelial height: 70%
[5]; 200 μg daily, absence of estrone
  height of uterine epithelial cells, % of the OVX control group value: 114%
[5]; OVX + E1, antiestrogen 50 μg daily
  ENDOMETRIAL EPITHELIUM THICKNESS (μm) ± SEM: 25.06^b ± 0.07 μm
[5]; OVX without E1, antiestrogen 200 μg daily
  ENDOMETRIAL EPITHELIUM THICKNESS (μm) ± SEM: 20.79 ± 0.10 μm
[6]; absence of estrone, 200 μg daily, 161 days
  increase of average tumor size over baseline (agonistic effect): did not significantly change
[6]; estrone-stimulated, 50 μg oral daily, 23 weeks
  tumor size lower than the initial value at start of treatment: 26%
[6]; [7]
  complete response, % of tumors: 17%
  partial response, % of tumors: 17%
  progressing tumors, % of tumors: 7%
  stable response, % of tumors: 60%
